Tests used:
[1] = biological target: T1, mouse ligand (single-chain IL27) (Mus musculus, UniProt O35228+Q8K3I6); experiment: SPR kinetics of soluble receptors with mouse IL27 ligand; conditions: binding with mouse ligand; gp130 not included
T1 construct: amino-terminal peptide tag (FLAG in lot A1426F) (N)
T1 sequence (O35228+Q8K3I6 with tags, fused parts or gaps): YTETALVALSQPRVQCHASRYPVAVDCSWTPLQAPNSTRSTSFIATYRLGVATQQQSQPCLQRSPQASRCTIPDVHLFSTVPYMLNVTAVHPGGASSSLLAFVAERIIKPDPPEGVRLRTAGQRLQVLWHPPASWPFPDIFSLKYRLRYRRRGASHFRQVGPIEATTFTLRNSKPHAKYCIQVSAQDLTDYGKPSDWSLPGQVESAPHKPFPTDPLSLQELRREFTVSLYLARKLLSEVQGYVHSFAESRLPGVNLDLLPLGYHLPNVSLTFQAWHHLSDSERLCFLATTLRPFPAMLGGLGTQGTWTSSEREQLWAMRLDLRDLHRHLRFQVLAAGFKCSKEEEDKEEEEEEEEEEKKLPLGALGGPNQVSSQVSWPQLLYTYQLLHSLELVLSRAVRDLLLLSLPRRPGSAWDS
Protocol: Kinetic rate and affinity constant values for the mouse (IL27RAm(mFc1), Example 3) and human (IL27RA-Fc5, Example 4) soluble receptors were obtained by surface plasmon resonance (SPR) using an automated instrument (BIACORE 3000; Biacore International AB, Uppsala, Sweden). The mouse soluble receptor was tested against mouse ligand (lot A1418F), and the human soluble receptor was tested against both mouse (A1426F) and human (A1534F) ligands. For determination of the kinetic rate constants for the receptor-ligand interactions, the gp130 molecule was not included as part of the receptor complex.
The IL27 ligands used in this study were single-chain molecules comprising EBI3 connected by its C-terminus to the N-terminus of IL-27 p28 via a polypeptide linker. Each of the ligands included an amino-terminal peptide tag.
For the mouse IL27RA study, the soluble receptor was captured onto the chip surface by an isotype-specific anti-mouse Fc antibody (obtained from Jackson ImmunoResearch Laboratories, Inc., West Grove, Pa.) covalently immobilized to the chip (BIACORE CM5 chip) using the standard amine coupling protocol specified by the instrument manufacturer. […]
All data were assessed using software provided with the instrument (BIACORE Evaluation software v. 3.2). […]

[2] = test system: serum IgG1, IgG2a, IgE and cytokines; experiment: Serum immunoglobulin and cytokine levels in acute GVHD model; type: in vivo, mouse; conditions: serum level
Protocol: Efficacy of IL-27 antagonists was assayed in a mouse model of acute graft-vs-host disease (Durie et al., J. Clin. Invest. 94:1333-1338, 1994). Parental mice (C57BL/6; n=12) were euthanized, and their spleens were collected. The pooled spleens were smashed using two glass slides to dissociate splenic cells. Lysis buffer was added to the splenocyte suspension to remove red blood cells. The cells were washed in RPMI 1640 (10% FBS) medium and resuspended in an appropriate amount of PBS to make a cell concentration of 300 million cells/ml. Protein treatments were administered by intraperitoneal injection every other day beginning on day-1 and continuing until day 15. Dexamethasone (DEX) was administered by injection daily on days 0 through 6. On day 0, 75 million donor splenic lymphocytes from B6 mice (250 .micro.l per injection) were injected intravenously into recipient mice (C57BL/6×DBA/2 F1 (BDF1); n=10 per group) mice. Mice were monitored 3 times a week for changes in body weight and any signs of moribundity. Mice that lost >20% of their initial body weight were euthanized. Otherwise, mice were sacrificed 18 days after the cell transfer. Spleens were collected, and a CTL-specific lysis assay using P815 cells was performed as a quantitative measurement of acute GVHD. Furthermore, spleens were stained for T- and B-cell markers, including MHC class I markers (H2^b and H2^d) to look at donor/recipient cell ratio (acute GVHD spleen cells are mostly donor cells). Sera were collected to measure serum level of IgG1, IgG2a, and IgE by ELISA, and cytokine and chemokine levels using a commercially available kit (Luminex Corporation, Austin, Tex.).

## human IL-27RA-Fc5: human IL27RA extracellular domain (amino acids 1 to 512 of SEQ ID NO:5) fused to Fc5, effector minus human gamma1 Fc; SEQ ID NO:3
[1]
  ka: 8.1e+06 M⁻¹ s⁻¹
  kd: 0.0018 s⁻¹
[2]
  IL-2: ↑↑↑
  IL-5: ↑↑
  IL-6: ↓↓↓
  IgE: ↑
  IgG1: ↑↑
  IgG2A: ↑↑
